According to patent publication US12351653B1, “Pharmaceutical compositions comprising novel cyclic peptides” (LISATA THERAPEUTICS, INC., priority 2019, dated 2025):

Experiments:
[1] = test system: metastatic pancreatic cancer; assay: Phase I trial (CEND-001) of CEND-1 with gemcitabine and nab-paclitaxel: response and survival; format: in vivo, human
Experimental: (§1) Patients will first receive the intravenous infusion of nabpaclitaxel (125 mg/m^2 over 30 minutes (±3 minutes)).
(§2) Patients (n=31) who had measurable metastatic pancreatic cancer, no prior treatments for metastatic disease and an ECOG PS of 0 to 1 were included. Primary endpoints are safety and optimal biologic dose, secondary and exploratory endpoints included response rates, pharmacokinetics and biomarkers.

CA19-9 = assay: Phase I trial (CEND-001): tumor biomarker CA19-9; format: in vivo, human; conditions: with nab-paclitaxel and gemcitabine
Experimental: as §1, §2
Of these, 23 patients had at least one on-treatment CA19-9 measurement.

[2] = with nab-paclitaxel and gemcitabine
[3] = with nab-paclitaxel and gemcitabine, RECIST 1.1, 29 evaluable patients
[4] = patients with elevated baseline CA19-9 and a postbaseline assessment (23)

## Ac-Cys-Arg-Gly-Asp-Lys-Gly-Pro-Asp-Cys-NH2 (Cys & Cys Bridge) [CEND-1]
[1]; with nab-paclitaxel 125 mg/m^2 and gemcitabine 1000 mg/m^2, investigator assessed RECIST 1.1, 29 evaluable patients
  Complete response: 3.4%
[1]; [2]
  Median time to progression: approximately 9.7 months
  Response rates relative to the benchmark trials: > 2 times
[1]; with nab-paclitaxel and gemcitabine, 16/29 patients
  Patients with progression: 55.2%
[1]; with nab-paclitaxel and gemcitabine, 17/29 patients (95% CI=38.9, 76.5)
  Confirmed objective responses (OR): 58.6%
[1]; [3]
  Partial response: 55%
  Progressive disease: 6.9%
  Stable disease: 34%
[1]; with nab-paclitaxel and gemcitabine, all evaluable patients (N=29)
  Overall response rate (ORR): 59%
[1]; with nab-paclitaxel and gemcitabine, at study closure
  Median (IQR) PFS: 9.7 months
[1]; with nab-paclitaxel and gemcitabine, evaluable patients (N=29)
  Overall disease control rate for 16 weeks: 79%
CA19-9; Cycle 5 Day 1, 20/22 patients
  Patients with a ≥50% reduction in CA19-9 from Baseline: 90.9%
CA19-9; [4]
  Patients with CA19-9 decrease from baseline of at least 20%: 96%
  Patients with CA19-9 decrease of at least 90% and/or CA19-9 levels normalized: 74%
